Values quoted from earlier work, collected in PMC7651685 (Psychopharmacology, 2020).
pIC50: −log10 of the molar value.

Key:
[1] = system: dopamine efflux in the nucleus accumbens; design: method as in Rowley et al. [2017]; details: rat nucleus accumbens microdialysis; ref Rowley et al. [2017]; cited from earlier work
DAT = details: ref Markowitz et al. [2006]; read-out: Affinity for DAT, IC50; cited from earlier work
[2] = no reference given; cited from earlier work

Row | Structure (SMILES) | Time of peak of dopamine efflux [1] | also measured
1 | C[C@H](N)Cc1ccccc1 [d-amphetamine] | 40 min | –
3 | CC(C)(N)Cc1ccccc1 [phentermine] | 40 min | –
4 | O=C(O)C(c1ccccc1)C1CCCCN1 (stereo not shown) [ritalinic acid] | – | Pharmacological activity [2]: pharmacologically inactive
